Source: patent US7767238B2, “Beverage composition and method of preventing degradation of vitamins in beverages” (PepsiCo, Inc., priority 2005, dated 2010)
One block for each compound: values may come before it.

Assays:
[1] = Vitamin A Palmitate remaining in clear lemon-lime CSD with Vitamin C and EDTA, clear glass, store fluorescent light (Example 2); format: physicochemical; settings: 100 ppm stabilizer, start 2000 IU, one week fluorescent light, Light control 548, Dark control 1870
Procedure: (§1) A clear lemon-lime (L/L) carbonated soft drink (CSD) with Vitamin C and ethylene-diaminetetraacetic acid (EDTA) was prepared. Seven samples of the carbonated soft drink were prepared each containing 2500 IU of Vitamin A Palmitate which can be obtained from Roche and the amount of rutin, SanMelin or blueberry leaves extract indicated in Table 8. All samples were packaged in clear glass containers. The Dark and Light samples were each free of rutin, SanMelin or blueberry leaves extract. The Dark sample was shielded from light. All the other samples, including the Light sample were exposed to typical store fluorescent light. The values in the table were all measured at one week.
Example 2 differed from Example 1 in that the starting amount of Vitamin A Palmitate was 2000 IU.

[2] = Vitamin A Palmitate remaining in clear lemon-lime CSD with Vitamin C and EDTA, clear glass, store fluorescent light (Example 1); format: physicochemical; settings: start 2500 IU, one week fluorescent light, Light control 576, Dark control 2300
Procedure: as §1

[3] = Vitamin A Palmitate remaining in non-carbonated pink lemonade 5% juice, PET bottle, store fluorescent light (Example 3); format: physicochemical; settings: 66 ppm stabilizer, start 3500 IU, one week fluorescent light, Light control 737, Dark control 3215
Procedure: as §1
A non-carbonated pink lemonade beverage composed of 5% juice was prepared. Seven samples like the ones in Examples 1 and 2 were prepared except that the starting amount of Vitamin A Palmitate was 3500 IU and the samples were packaged in PET containers.

[4] = Vitamin stabilization ability, observed rank order; settings: more hydroxyl groups on the aryl rings enhance vitamin stabilization
[5] = Vitamin A remaining in fruit juice in 20 oz. PET bottle under store fluorescent light; format: physicochemical; settings: freshly prepared 3500 IU fruit juice, typical store fluorescent light, one week, no stabilizer

IU of Vitamin A Palmitate [1]: 856 IU | IU of Vitamin A Palmitate ([2]; 33 ppm stabilizer): 878 IU | IU of Vitamin A Palmitate ([2]; 66 ppm stabilizer): 1215 IU | IU of Vitamin A Palmitate [3]: 1824 IU
Compound: C[C@@H]1O[C@@H](OC[C@H]2O[C@@H](Oc3c(-c4ccc(O)c(O)c4)oc4cc(O)cc(O)c4c3=O)[C@H](O)[C@@H](O)[C@@H]2O)[C@H](O)[C@H](O)[C@H]1O [Rutin, rutin]

Compound: O=C(O)/C=C/c1ccc(O)c(O)c1 [caffeic acid]
vitamin stabilization ability (rank order) [4]: caffeic acid (2 hydroxyl groups)>ferulic acid>coumaric acid>cinnamic acid

Compound: O=C(O)C=Cc1ccccc1 [cinnamic acid]
vitamin stabilization ability (rank order) [4]: caffeic acid (2 hydroxyl groups)>ferulic acid>coumaric acid>cinnamic acid

Compound: O=C(O)/C=C/c1ccc(O)cc1 [coumaric acid]
vitamin stabilization ability (rank order) [4]: caffeic acid (2 hydroxyl groups)>ferulic acid>coumaric acid>cinnamic acid

Compound: COc1cc(/C=C/C(=O)O)ccc1O [ferulic acid]
vitamin stabilization ability (rank order) [4]: caffeic acid (2 hydroxyl groups)>ferulic acid>coumaric acid>cinnamic acid

remaining Vitamin A content [5]: approximately 1000 IU
Compound: Vitamin A
